Experimental data taken from ChEMBL document CHEMBL1212803, “Resistance-associated mutations to etravirine (TMC-125) in antiretroviral-naïve patients infected with non-B HIV-1 subtypes” (2010).

Tests used:
Format in all cases: functional
[1] = test system: Human immunodeficiency virus 1; assay: Antiviral activity against HIV-1 subtype CRF02_AG containing reverse transcriptase V90I/V35T, T39M, K46Q, V60I, S68G, D123E, I135V, S162A, K173A, Q174K,D177E, T200A, Q207E, R211K mutant relative to control
[2] = test system: Human immunodeficiency virus 1; assay: Antiviral activity against HIV-1 subtype CRF02_AG containing reverse transcriptase V90I/V35T, E36D, V60I, K122E, D123S, I135V, E138D, S162A, K173T,Q174S, D177E, I178M, V189I, T200A, I202V, Q207E, F214L, V245Q mutant relative to control
[3] = test system: Human immunodeficiency virus 1; assay: Antiviral activity against HIV-1 subtype CRF02_AG containing reverse transcriptase A98G/V35T, V60I, I135L, S162A, K173A, Q174K, D177E, I178M, T200A,Q207E, R211K, V245Q, D250E mutant relative to control
[4] = test system: Human immunodeficiency virus 1; assay: Antiviral activity against HIV-1 subtype CRF02_AG containing reverse transcriptase K101E/K30E, I31P, V35Q, T39S, E44G, E53G, A62G, N81H, Q91H,I135V,S162A, K173S, Q174R, D177E, V179I, T200I, Q207N, R211K, F214L mutant relative to control
[5] = test system: Human immunodeficiency virus 1; assay: Antiviral activity against HIV-1 subtype CRF02_AG containing reverse transcriptase E138A/K20R, V35T, E36A, T39D, V60I, I135V, T139I, K173A, Q174K, T200E, Q207A, R211K, F214L mutant relative to control
[6] = test system: Human immunodeficiency virus 1; assay: Antiviral activity against HIV-1 subtype CRF02_AG containing reverse transcriptase E138A/K20R, V35T, E36D, T39N, V60I, D123N, I135V, S162A, K173T, Q174K, D177E, T200A, Q207E, R211K mutant relative to control
[7] = test system: Human immunodeficiency virus 1; assay: Antiviral activity against HIV-1 subtype CRF02_AG containing reverse transcriptase Y181C/V35T, V60I, I135V, S162A, K173T, Q174K, N175Y, D177E, T200A, Q207E, R211K, H221Y mutant relative to control
[8] = test system: Human immunodeficiency virus 1; assay: Antiviral activity against HIV-1 subtype CRF02_AG containing reverse transcriptase V90I,Y181C/V35T, T39M, P119S, D123E, S162A, E169D, K173T, Q174K, D177E, T200A, Q207E, K219N, V245Q, E248D mutant relative to control
[9] = test system: Human immunodeficiency virus 1; assay: Antiviral activity against HIV-1 subtype CRF02_AG containing reverse transcriptase V90I,A98G/V35T, E36D, T39K, S48A, I50V, V60I, S68G, I135V, S162A, K173T, Q174K, D177E, G196E, T200A, E203G, Q207D, R211K, Q222P mutant relative to control

| SMILES | Ratio IC50 [1] | Ratio IC50 [2] | Ratio IC50 [3] | Ratio IC50 [4] | Ratio IC50 [5] | Ratio IC50 [6] | Ratio IC50 [7] | Ratio IC50 [8] | Ratio IC50 [9] |
| --- | --- | --- | --- | --- | --- | --- | --- | --- | --- |
| Cc1cc(C#N)cc(C)c1Oc1nc(Nc2ccc(C#N)cc2)nc(N)c1Br [ETRAVIRINE] | 1.6 | 1.3 | 2.9 | 1.3 | 3 | 1.7 | 11.1 | 3.3 | 1.2 |
| Cc1ccnc2c1NC(=O)c1cccnc1N2C1CC1 [NEVIRAPINE] | 1.3 | 0.7 | 8.3 | 2.2 | 0.5 | 0.4 | >49.6 | >70.9 | 2.4 |
